# Data: PubChem BioAssay (NCI)
#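 Assay format: 96-well plates, 48-hour exposure. At the TGI there is no net growth.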
# Legend:
# Experiment in all cases: NCI tumour cell line growth inhibition, 48 h
# NCI-H226 lung = system: NCI-H226 lung
# COLO 205 colon = system: COLO 205 colon
# MDA-N = system: MDA-N
# DU-145 prostate = system: DU-145 prostate
# HOP-92 NSCLC = system: HOP-92 NSCLC
# TK-10 renal = system: TK-10 renal
# NCI/ADR-RES ovarian = system: NCI/ADR-RES ovarian
# NCI-H23 lung = system: NCI-H23 lung
# SF-268 CNS = system: SF-268 CNS
# OVCAR-4 ovarian = system: OVCAR-4 ovarian
# OVCAR-5 ovarian = system: OVCAR-5 ovarian
# PC-3 prostate = system: PC-3 prostate
# HCT-15 colon = system: HCT-15 colon
# MCF7 breast = system: MCF7 breast
# OVCAR-3 ovarian = system: OVCAR-3 ovarian
# SK-MEL-2 melanoma = system: SK-MEL-2 melanoma
# KM12 colon = system: KM12 colon
# MDA-MB-435 = system: MDA-MB-435
# MOLT-4 leukemia = system: MOLT-4 leukemia
# UACC-62 melanoma = system: UACC-62 melanoma
# CCRF-CEM leukemia = system: CCRF-CEM leukemia
# HCT-116 colon = system: HCT-116 colon
# SW-620 colon = system: SW-620 colon
# LOX IMVI melanoma = system: LOX IMVI melanoma
# CAKI-1 renal = system: CAKI-1 renal
# HOP-62 NSCLC = system: HOP-62 NSCLC
# EKVX NSCLC = system: EKVX NSCLC
# SK-OV-3 ovarian = system: SK-OV-3 ovarian
# SN12C renal = system: SN12C renal
# ACHN renal = system: ACHN renal
# IGROV1 ovarian = system: IGROV1 ovarian
# NCI-H460 lung = system: NCI-H460 lung
# MALME-3M melanoma = system: MALME-3M melanoma
# 786-0 renal = system: 786-0 renal
# SNB-19 CNS = system: SNB-19 CNS
# A498 renal = system: A498 renal
# M14 melanoma = system: M14 melanoma
# SK-MEL-28 melanoma = system: SK-MEL-28 melanoma
# SF-539 CNS = system: SF-539 CNS
# RXF 393 renal = system: RXF 393 renal
# NCI-H522 lung = system: NCI-H522 lung
# A549 NSCLC = system: A549 NSCLC
# SF-295 CNS = system: SF-295 CNS
# HCC-2998 colon = system: HCC-2998 colon
# HS 578T breast = system: HS 578T breast
# SK-MEL-5 melanoma = system: SK-MEL-5 melanoma
# MDA-MB-231 breast = system: MDA-MB-231 breast
# HT29 colon = system: HT29 colon
# SR leukemia = system: SR leukemia
# OVCAR-8 ovarian = system: OVCAR-8 ovarian
# UACC-257 melanoma = system: UACC-257 melanoma
# HL-60(TB) leukemia = system: HL-60(TB) leukemia
# T-47D breast = system: T-47D breast
# U251 CNS = system: U251 CNS
# BT-549 breast = system: BT-549 breast
# RPMI-8226 leukemia = system: RPMI-8226 leukemia
# SNB-75 CNS = system: SNB-75 CNS
# UO-31 renal = system: UO-31 renal
# K-562 leukemia = system: K-562 leukemia
structure (smiles),measurement,setting,value
O=C1C/C(=C\c2ccccc2)C(=O)c2ccccc2N1,TGI,NCI-H226 lung,80.4 µM
same,TGI,COLO 205 colon,34.8 µM
same,TGI,MDA-N,47.8 µM
same,TGI,DU-145 prostate,59.4 µM
same,TGI,HOP-92 NSCLC,60.7 µM
same,TGI,TK-10 renal,54.7 µM
same,TGI,NCI/ADR-RES ovarian,54.7 µM
same,TGI,NCI-H23 lung,48.1 µM
same,TGI,SF-268 CNS,98.4 µM
same,TGI,OVCAR-4 ovarian,49.1 µM
same,TGI,OVCAR-5 ovarian,40.9 µM
same,TGI,PC-3 prostate,50.1 µM
same,TGI,HCT-15 colon,44.7 µM
same,TGI,MCF7 breast,> 100 µM
same,TGI,OVCAR-3 ovarian,50.5 µM
same,TGI,SK-MEL-2 melanoma,60.6 µM
same,TGI,KM12 colon,39.5 µM
same,TGI,MDA-MB-435,42.7 µM
same,TGI,MOLT-4 leukemia,> 100 µM
same,TGI,UACC-62 melanoma,40.5 µM
same,TGI,CCRF-CEM leukemia,49.8 µM
same,TGI,HCT-116 colon,29.3 µM
same,TGI,SW-620 colon,40.7 µM
same,TGI,LOX IMVI melanoma,40.8 µM
same,TGI,CAKI-1 renal,33.1 µM
same,TGI,HOP-62 NSCLC,56.6 µM
same,TGI,EKVX NSCLC,48.5 µM
same,TGI,SK-OV-3 ovarian,68 µM
same,TGI,SN12C renal,34.8 µM
same,TGI,ACHN renal,58.4 µM
same,TGI,IGROV1 ovarian,38 µM
same,TGI,NCI-H460 lung,62 µM
same,TGI,MALME-3M melanoma,34.2 µM
same,TGI,786-0 renal,34.5 µM
same,TGI,SNB-19 CNS,30.7 µM
same,TGI,A498 renal,35.4 µM
same,TGI,M14 melanoma,44.1 µM
same,TGI,SK-MEL-28 melanoma,55.8 µM
same,TGI,SF-539 CNS,39.4 µM
same,TGI,RXF 393 renal,35.8 µM
same,TGI,NCI-H522 lung,51.9 µM
same,TGI,A549 NSCLC,56.9 µM
same,TGI,SF-295 CNS,36.8 µM
same,TGI,HCC-2998 colon,37.9 µM
same,TGI,HS 578T breast,> 100 µM
same,TGI,SK-MEL-5 melanoma,36.2 µM
same,TGI,MDA-MB-231 breast,49.7 µM
same,TGI,HT29 colon,36.5 µM
same,TGI,SR leukemia,99.5 µM
same,TGI,OVCAR-8 ovarian,39.1 µM
same,TGI,UACC-257 melanoma,48.6 µM
same,TGI,HL-60(TB) leukemia,49.2 µM
same,TGI,T-47D breast,78.1 µM
COC(=O)c1c(O)ccc2c1c1c(n2CCc2ccccc2)C(=O)c2ccccc2C1,TGI,NCI-H226 lung,40 µM
same,TGI,COLO 205 colon,32.5 µM
same,TGI,MDA-N,> 100 µM
same,TGI,DU-145 prostate,> 100 µM
same,TGI,HOP-92 NSCLC,30.9 µM
same,TGI,TK-10 renal,> 100 µM
same,TGI,NCI/ADR-RES ovarian,53.1 µM
same,TGI,U251 CNS,80.3 µM
same,TGI,NCI-H23 lung,74.1 µM
same,TGI,SF-268 CNS,41 µM
same,TGI,OVCAR-4 ovarian,41.4 µM
same,TGI,PC-3 prostate,50.6 µM
same,TGI,HCT-15 colon,63.8 µM
same,TGI,MCF7 breast,42.5 µM
same,TGI,BT-549 breast,63.1 µM
same,TGI,OVCAR-3 ovarian,47.5 µM
same,TGI,SK-MEL-2 melanoma,40.5 µM
same,TGI,KM12 colon,> 100 µM
same,TGI,MDA-MB-435,67 µM
same,TGI,MOLT-4 leukemia,> 100 µM
same,TGI,UACC-62 melanoma,37.2 µM
same,TGI,CCRF-CEM leukemia,60.6 µM
same,TGI,HCT-116 colon,35.8 µM
same,TGI,SW-620 colon,> 100 µM
same,TGI,LOX IMVI melanoma,> 100 µM
same,TGI,CAKI-1 renal,45.6 µM
same,TGI,RPMI-8226 leukemia,34 µM
same,TGI,HOP-62 NSCLC,52.3 µM
same,TGI,SK-OV-3 ovarian,64.2 µM
same,TGI,SN12C renal,35.4 µM
same,TGI,IGROV1 ovarian,46 µM
same,TGI,NCI-H460 lung,48.3 µM
same,TGI,SNB-75 CNS,54.1 µM
same,TGI,MALME-3M melanoma,> 100 µM
same,TGI,UO-31 renal,49.7 µM
same,TGI,786-0 renal,37.9 µM
same,TGI,SNB-19 CNS,84.1 µM
same,TGI,A498 renal,40.5 µM
same,TGI,M14 melanoma,55.2 µM
same,TGI,SK-MEL-28 melanoma,53.8 µM
same,TGI,SF-539 CNS,45.2 µM
same,TGI,RXF 393 renal,31.3 µM
same,TGI,A549 NSCLC,> 100 µM
same,TGI,HS 578T breast,> 100 µM
same,TGI,K-562 leukemia,> 100 µM
same,TGI,SK-MEL-5 melanoma,43 µM
same,TGI,MDA-MB-231 breast,57 µM
same,TGI,HT29 colon,70.4 µM
same,TGI,SR leukemia,> 100 µM
same,TGI,OVCAR-8 ovarian,> 100 µM
same,TGI,UACC-257 melanoma,44 µM
same,TGI,HL-60(TB) leukemia,65.3 µM
